# Laboratory results published in US20050261246A1, “Methods for treating inflammatory and autoimmune diseases” (priority 2004, published 2005).
# Key:
# [1] = tested on: VEGF production in human cancer cell lines; experiment: VEGF production in human cancer cell lines (ELISA); type: cell-based
# Experimental: (A) Effect of SNS on VEGF production was analyzed in two cancer cell lines (both supernatants and cell lysates). (B) The supernatant from control and drug treated H460 cells was analyzed for the level of VEGF (pg/ml). C. […] Statistical analyses were performed using one-way ANOVA.
# As discussed above, SNS and pancratastatin were originally synthesized as an anti-cancer agent. The inventors also examined the effect of SNS and pancratastatin on the production of VEGF in human cancer cell lines (FIG. 2). […] This analysis had been performed at least 3-5 times depending on the cell lines and drug used, with statistical analysis performed using one-way ANOVA.
# [2] = Body weight and tolerability in arthritic and non-arthritic rats of the AA study; type: in vivo, rat
# From the text: Adult male Lewis rats (200-250 g) were purchased from Charles River Laboratories, Raleigh, N.C. and housed two per cage. The animals were allowed to acclimate to the Sun Health Research Institute's vivarium for 7 days prior to the start of the experiment. The animals were maintained on a 12-h off/on light schedule. For AA rats rodent Diet (Purina Lab Diet 5001) was placed in the bottom of the cage and water was supplied using long-stemmed sipper tubes for easy access to food and water. […] Animals were weighed and observed daily to ensure adequate weight gain and good general health. Body weights and footpad measures were started 1 week prior to the first adjuvant injection to acclimate the animals to these mild stresses and obtain baseline data. Other than the development of arthritis, the good health of the animals was maintained throughout the course of the experiments. Protocols for the use and care of the animals in the study were approved prior to beginning the experiments by the Sun Health Research Institute Animal Use and Care Committee and complied with NIH guidelines for the humane use and care of research animals. Dorsoplantar footpad measurements were completed every other day. Prior to sacrifice the animals were given a 1.0 ml intraperitoneal (i.p.) injection of 8% chloral hydrate in sterile saline and radiographs were taken of their hind limbs to assess disease severity. The animals were then sacrificed using an overdose of chloral hydrate.
# Lewis rats were randomly assigned into five experimental groups of four animals per group. The experimental groups were 1) saline/M. Butyricum suspended in saline (non-arthritic; control for drug and antigen challenge), 2) sodium narcistatin/M. Butyricum suspended in saline (non-arthritic; drug control for antigen challenge), 3) no treatment-CFA (arthritic; control for stress of injections), 4) saline-CFA (arthritic; control for drug treatment), and 5) sodium-narcistatin-CFA (arthritic) treatments. The experiment was completed with an N=4 then repeated with an additional N=4. […]
# [3] = tested on: splenic myeloid cells (CD11b+), T and B cells; experiment: Splenic cell populations in SNS-treated rats (immunostaining, flow cytometry); type: in vivo, rat
# Experimental: B. Summary of myeloid cells (CD11b+ cells) present in various treatment groups. The statistical analysis was performed using t-test (*, N=4). SMB-saline, saline treated, non-arthritic, mycobacterium challenged; SMB-SNS, SNS treated, non-arthritic, mycobacterium challenged; CFA-saline, arthritic Saline treated; CFA-No-RX, arthritic no treatment (stress control); CFA-SNS, SNS treated arthritic. The experimental groups are the same as those in FIGS. 4-7.
# One of characteristics of inflammatory response is an elevation of myeloid cells. […] The cells were stained with fluorescence-conjugated antibodies specific to CD3, CD45R, and CD11b, followed by analyses using flow cytometry to reveal T, B, and myeloid cells, respectively. Lymphoid and myeloid cells were distinguished based on their differing forward and side scatter patterns.
# TNFα production = TNFα production from splenic cultures of Balb/c mice treated with SNS; type: in vivo, mouse; details: non-CAIA Balb/c mice treated 5 days, p<0.01
# Experimental: Balb/c mice (n=5) were treated i.p. with SNS at 5 mg/Kg or with PBS for 5 consecutive days. Spleen were isolated on the next day after the last SNS injection and the splenocytes were stimulated with anti-CD3 antibody or LPS for 24 hrs, and supernatant were analyzed for TNF-α production.
# Isolated splenic cells were cultured with either immobilized […] (50 ug/ml) or 1 ug/ml LPS for […]. Cells without any stimulation were included as control. The supernatants from these cultures were analyzed for TNFα using BD™ CBA Mouse Inflammatory Kit (BD Biosciences), according to the manufacture's procedure. The average TNF concentration in each culture was derived from 2-3 independent experiments of 4-5 mice per group per experiment. No arthritis was induced in these experiments. […] Thus, TNFα production was reduced in the splenic culture of SNS-treated mice, in response to T cell activation by anti-CD3 antibody.
# [4] = tested on: TNFα and MCP-1 production; experiment: In vivo air-pouch assay, LPS-stimulated cytokine production; set-up: species or system mouse; details: SNS 5 mg/kg then LPS 1 μg/ml, vs LPS-stimulated controls
# Experimental: The reduction of TNF-alpha (P=0.04) and MCP-1 (P=0.03) in SNS-treated mice upon LPS stimulation. PBS_PBS: PBS followed by PBS; PBS_LPS: PBS followed by LPS (1 μg/ml); SNS_PBS: SNS followed by PBS; SNS_LPS: SNS (5 mg/kg) followed by LPS (1 μg/ml). Results are derived from three independent experiments. Statistical analysis was performed using one-way ANOVA.
# To further test effects of SNS in whole animals, we established an air-pouch assay to evaluate the effect of the compound, SNS, on LPS-stimulated cytokine production, following a procedure described previously (9). (See FIG. 14) Mice were pre-treated with PBS or SNS then challenged with LPS. The pouch wash-out was then analyzed for cytokine production using BD™ CBA Mouse Inflammatory Kit (BD Biosciences).
smiles,measurement,setting,value
"O=C1N[C@@H]2C(=C[C@H](O)[C@H]3OP(=O)(O)O[C@H]32)c2cc3c(c(O)c21)OCO3 [SNS, sodium narcistatin]","VEGF production, narcistatin compared with pancratistatin",[1],comparable inhibition on VEGF production
same,effect on VEGF production/secretion,"[1]; human cancer cell lines, ELISA",significantly suppresses the secretion of VEGF
same,"tolerability / overt toxicity, arthritic rats",[2]; body weights and gross evaluation of internal organs at end point,no general signs of overt toxicity were apparent
same,"body weight, non-arthritic control rats","[2]; day 28, chronic treatment, vs saline-treated non-arthritic controls, P<0.001",significantly decreased body weights
same,"body weight, arthritic rats","[2]; day 28, vs untreated or saline-treated arthritic rats",not significantly different
same,splenic myeloid population (CD11b+ cells),"[3]; rats of the AA study, especially SNS/non-arthritic group",greatly reduced this myeloid population
same,numbers of splenic T and B lymphocytes,[3]; various treatment groups,comparable numbers of T and B lymphocytes
same,TNFα in splenic cultures stimulated with anti-CD3,TNFα production,significant reduction of TNFα
same,MCP-1 in air-pouch wash-out,[4]; P=0.03,significantly reduced
same,TNFα in air-pouch wash-out,[4]; P=0.04,significantly reduced
